Assays:
Format in all cases: in vivo
[1] = test system: Beet Armyworm (BAW) (Spodoptera exigua); assay: Bioassay on beet armyworm (BAW), 128-well diet tray assay; conditions: Spodoptera exigua; beet armyworm, 50 μg/cm^2; read-out: % Mortality BAW 50 μg/cm^2
[2] = test system: Corn Earworm (CEW) (Helicoverpa zea); assay: Bioassay on corn earworm (CEW), 128-well diet tray assay; conditions: Helicoverpa zea; corn earworm, 50 μg/cm^2; read-out: % Mortality CEW 50 μg/cm^2
Outline: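 Activity was scored as percent larval mortality per well, averaged across eight wells and reported on a rating scale. Diet trays (128-well) were kept at 25° C with 14:10 light-dark for five to seven days.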

[3] = test system: Green Peach Aphid (GPA) (Myzus persicae); assay: Bioassay on green peach aphid (GPA), foliar spray on cabbage seedlings; conditions: green peach aphid, 200 ppm, read-out: % Mortality GPA 200 ppm
Protocol: Certain molecules disclosed in this document were tested against GPA using procedures described in the following example. In the reporting of the results, the “GPA Rating Table” was used (See Table Section).
Cabbage seedlings grown in 3-inch pots, with 2-3 small (3-5 cm) true leaves, were used as test substrate. The seedlings were infested with 20-50 GPA (wingless adult and nymph stages) one day prior to chemical application. Four pots with individual seedlings were used for each treatment. Test compounds (2 mg) were dissolved in 2 mL of acetone/methanol (1:1) solvent, forming stock solutions of 1000 ppm test compound. […] A hand-held aspirator-type sprayer was used for spraying a solution to both sides of […] leaves until runoff. Reference plants (solvent check) were sprayed with the diluent only containing 20% by volume of acetone/methanol (1:1) solvent. Treated plants were held in a holding room for three days at approximately 25° C. and ambient relative humidity (RH) prior to grading. Evaluation was conducted by counting the number of live aphids per plant under a microscope. […] Corrected % Control=100*(X−Y)/X • where • X=No. of live aphids on solvent check plants and • Y=No. of live aphids on treated plants
The results are indicated in the table entitled “Table 5: Biological Results” (See Table Section).

SMILES | mortality at 50 µg/cm2 [1] [%] | mortality at 50 µg/cm2 [2] [%] | mortality at 200 ppm [3] [%]
COc1ccc(N2CCCS/C2=N\N=C\c2ccc(-c3ncn(-c4ccc(OC(F)(F)F)cc4)n3)cc2)cc1 [Compound 202C] | 50 to 100 | 50 to 100 | 0 to 80
Cc1ncccc1N1CCCS/C1=N\N=C\c1ccc(-c2ncn(-c3ccc(OC(F)(F)F)cc3)n2)cc1 [Compound 205C] | 50 to 100 | 50 to 100 | 0 to 80
CCc1ccccc1N1/C(=N/N=C/c2ccc(-c3ncn(-c4ccc(OC(F)(F)F)cc4)n3)cc2)SCC1(C)O (stereo not drawn) [Compound 254C] | 50 to 100 | 50 to 100 | 0 to 80
Cc1cccnc1N1CCCS/C1=N\N=C\c1ccc(-c2ncn(-c3ccc(OC(F)(F)F)cc3)n2)cc1 [Compound 198C] | 50 to 100 | 50 to 100 | 0
Cc1cccc(C)c1/N=C1\SCC(=O)N1/N=C/c1ccc(-c2ncn(-c3ccc(OC(F)(F)F)cc3)n2)cc1 [Compound 81C] | 50 to 100 | 50 to 100 | 0
Cc1cccc(C)c1/N=C(/N/N=C/c1ccc(-c2ncn(-c3ccc(OC(F)(F)F)cc3)n2)cc1)SCC(=O)N1CCN(C(=O)OC(C)(C)C)CC1 [Compound 57C] | 50 to 100 | 50 to 100 | 0 to 80
FC(F)(F)Oc1ccc(-n2cnc(-c3ccc(/C=N/N=C4\SCCN4c4c(Cl)cccc4C(F)(F)F)cc3)n2)cc1 [Compound 149C] | 50 to 100 | 50 to 100 | 0
CC(C)c1ccccc1N1/C(=N/N=C/c2ccc(-c3ncn(-c4ccc(OC(F)(F)C(F)(F)F)cc4)n3)cc2)SCC1(C)O (stereo not drawn) [Compound 262C] | 50 to 100 | 50 to 100 | 0 to 80
Cc1cccc(C)c1/N=C(/N/N=C/c1ccc(-c2ncn(-c3ccc(OC(F)(F)C(F)(F)F)cc3)n2)cc1)SCC(=O)O [Compound 49C] | 50 to 100 | 50 to 100 | 0 to 80
Cc1cccc(C)c1-n1c(-c2ccc(C(=O)O)cc2)cs/c1=N\N=Cc1ccc(-c2ncn(-c3ccc(OC(F)(F)F)cc3)n2)cc1 [Compound 77C] | 50 to 100 | 50 to 100 | 0 to 80
CCN(CC)c1ccc(-c2cs/c(=N\N=Cc3ccc(-c4ncn(-c5ccc(OC(F)(F)F)cc5)n4)cc3)n2-c2c(C)cccc2C)cc1 [Compound 74C] | 50 to 100 | 50 to 100 | 0
CC(C)=Cc1ccccc1N1CCS/C1=N\N=C\c1ccc(-c2ncn(-c3ccc(OC(F)(F)F)cc3)n2)cc1 [Compound 151C] | 50 to 100 | 50 to 100 | 0 to 80
CCC(C)c1ccccc1N1/C(=N/N=C/c2ccc(-c3ncn(-c4ccc(OC(F)(F)F)cc4)n3)cc2)SCC1(C)O (stereo not drawn) [Compound 243C] | 50 to 100 | 50 to 100 | 0 to 80
Cc1ccccc1N1CCS/C1=N\N=C\c1ccc(-c2ncn(-c3ccc(OC(F)(F)F)cc3)n2)cc1 [Compound 141C] | 50 to 100 | 50 to 100 | 0
FC(F)(F)Oc1ccc(-n2cnc(-c3ccc(/C=N/N=C4\SCCN4c4ccccc4C4CC4)cc3)n2)cc1 [Compound 145C] | 50 to 100 | 50 to 100 | 0 to 80
COc1ccc(N2CCS/C2=N\N=C\c2ccc(-c3ncn(-c4ccc(OC(F)(F)F)cc4)n3)cc2)c(C)c1 [Compound 137C] | 50 to 100 | 50 to 100 | 0
CCOc1ccccc1N1CCS/C1=N\N=C\c1ccc(-c2ncn(-c3ccc(OC(F)(F)F)cc3)n2)cc1 [Compound 146C] | 50 to 100 | 50 to 100 | 0 to 80
Cc1ccc(N2/C(=N/N=C/c3ccc(-c4ncn(-c5ccc(OC(F)(F)F)cc5)n4)cc3)SCC2(C)O)c(C(C)C)c1 (stereo not drawn) [Compound 251C] | 50 to 100 | 50 to 100 | 0 to 80
CCc1cccc(C)c1N1/C(=N/N=C/c2ccc(-c3ncn(-c4ccc(OC(F)(F)F)cc4)n3)cc2)SCCC1C (stereo not drawn) [Compound 213C] | 50 to 100 | 50 to 100 | 0 to 80
CC(C)c1ccccc1N1CCCS/C1=N\N=C\c1ccc(-c2ncn(-c3ccc(C(F)(F)F)cc3)n2)cc1 [Compound 179C] | 50 to 100 | 50 to 100 | 0

SMILES | mortality at 50 µg/cm2 [1] [%] | mortality at 50 µg/cm2 [2] [%] | mortality at 200 ppm [3] [%]
CC(C)c1ccccc1N1/C(=N/N=C/c2ccc(-c3ncn(-c4ccc(C(F)(C(F)(F)F)C(F)(F)F)cc4)n3)cc2)SCC1(C)O (stereo not drawn) [Compound 260C] | 50 to 100 | 50 to 100 | 0
Cc1cccc(Cl)c1N1/C(=N/N=C/c2ccc(-c3ncn(-c4ccc(OC(F)(F)F)cc4)n3)cc2)SCC1C (stereo not drawn) [Compound 158C] | 50 to 100 | 50 to 100 | 0 to 80
Cc1cccc(C)c1/N=C(/N/N=C/c1ccc(-c2ncn(-c3ccc(OC(F)(F)F)cc3)n2)cc1)SCc1ccc(OC(F)(F)F)cc1 [Compound 8C] | 50 to 100 | 50 to 100 | 0 to 80
CC1S/C(=N\N=C\c2ccc(-c3ncn(-c4ccc(OC(F)(F)F)cc4)n3)cc2)N(c2ccccc2C(C)C)C1=O (stereo not drawn) [Compound 88C] | 50 to 100 | 50 to 100 | 0 to 80
Cc1cccc(C)c1/N=C(/N/N=C/c1ccc(-c2ncn(-c3ccc(OC(F)(F)F)cc3)n2)cc1)SCC(=O)NCCCNC(=O)OC(C)(C)C [Compound 58C] | 50 to 100 | 50 to 100 | 0 to 80
COc1ccc(C(C)/N=C(/N/N=C/c2ccc(-c3ncn(-c4ccc(OC(F)(F)F)cc4)n3)cc2)SCC(=O)O)cc1F (stereo not drawn) [Compound 53C] | 0 to 50 | 0 | 0 to 80
Cc1cccc(C)c1/N=C(/N/N=C/c1ccc(-c2ncn(-c3ccc(OC(F)(F)F)cc3)n2)cc1)SCOC(=O)C(C)(C)C [Compound 36C] | 50 to 100 | 50 to 100 | 0
CC(C)c1ccccc1N1CCCS/C1=N\N=C\c1ccc(-c2ncn(-c3ccc(OC(F)(F)F)cc3)n2)cc1 [Compound 177C] | 50 to 100 | 50 to 100 | 0
CCS/C(=N\c1c(Cl)cccc1Cl)N/N=C/c1ccc(-c2ncn(-c3ccc(OC(F)(F)F)cc3)n2)cc1 [Compound 2C] | 50 to 100 | 50 to 100 | 0
COc1cc(C)c(N2CCCS/C2=N\N=C\c2ccc(-c3ncn(-c4ccc(OC(F)(F)F)cc4)n3)cc2)c(C)c1 [Compound 181C] | 50 to 100 | 50 to 100 | 0 to 80
Cc1cccc(C)c1/N=C(/N/N=C/c1ccc(-c2ncn(-c3ccc(OC(F)(F)F)cc3)n2)cc1)SCOC(=O)C1CCCC1 [Compound 35C] | 50 to 100 | 50 to 100 | 0 to 80
CC(C)Cc1ccccc1N1C(=O)CS/C1=N\N=C\c1ccc(-c2ncn(-c3ccc(OC(F)(F)F)cc3)n2)cc1 [Compound 119C] | 50 to 100 | 50 to 100 | 0
CC(C)=Cc1ccccc1N1C(=O)CS/C1=N\N=C\c1ccc(-c2ncn(-c3ccc(OC(F)(F)F)cc3)n2)cc1 [Compound 121C] | 50 to 100 | 50 to 100 | 0 to 80
CCCS/C(=N\c1c(Cl)cccc1Cl)N/N=C/c1ccc(-c2ncn(-c3ccc(OC(F)(F)F)cc3)n2)cc1 [Compound 3C] | 50 to 100 | 50 to 100 | 0
Cc1cccc(C)c1N1CCCS/C1=N\N=C\c1ccc(-c2ncn(-c3ccc(OC(F)(F)F)cc3)n2)cc1 [Compound 182C] | 50 to 100 | 50 to 100 | 0 to 80
CC(C)c1ccccc1N1C(=O)CCS/C1=N\N=C\c1ccc(-c2ncn(-c3ccc(OC(F)(F)F)cc3)n2)cc1 [Compound 224C] | 50 to 100 | 50 to 100 | 0 to 80
Fc1cccc(F)c1N1CCCS/C1=N\N=C\c1ccc(-c2ncn(-c3ccc(OC(F)(F)F)cc3)n2)cc1 [Compound 189C] | 50 to 100 | 50 to 100 | 0 to 80
COc1cc(C)c(/N=C(/N/N=C/c2ccc(-c3ncn(-c4ccc(OC(F)(F)F)cc4)n3)cc2)SCOC(=O)C(C)C)c(C)c1 [Compound 27C] | 50 to 100 | 50 to 100 | 0 to 80
CC(C)c1cc(F)c(F)cc1N1/C(=N/N=C/c2ccc(-c3ncn(-c4ccc(OC(F)(F)F)cc4)n3)cc2)SCC1(C)O (stereo not drawn) [Compound 259C] | 50 to 100 | 50 to 100 | 0
